According to publication PMC9069370, “Integrated Design of a Membrane‐Lytic Peptide‐Based Intravenous Nanotherapeutic Suppresses Triple‐Negative Breast Cancer” (Advanced Science, 2022):
Peptide text beside a SMILES is read from it.

Columns and labels:
[1] = ANTS/DPX liposome leakage assay; settings: 0.5 mM vesicles, peptide 0-20 µM, 3 h incubation, lipid per peptide; for Peptide Concentration-induced 50 % ANTS/DPX leakage at pH 4.8 (L/P), 3POPC/1POPG Vesicle / Peptide Concentration-induced 50 % ANTS/DPX leakage at pH 4.8 (L/P), POPC Vesicle: HCl-adjusted PBS 1X pH 4.8; for Peptide Concentration-induced 50 % ANTS/DPX leakage at pH 7.4 (L/P), 3POPC/1POPG Vesicle / Peptide Concentration-induced 50 % ANTS/DPX leakage at pH 7.4 (L/P), POPC Vesicle: PBS 1X pH 7.4, high ratio = more potent
Method in brief: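 Extruded 0.1 µm POPC or POPC/POPG (3:1) vesicles were loaded with 5 mM ANTS and 12.5 mM DPX, gel-filtered, then used at 0.5 mM lipid with titrated peptide at pH 7.4 or pH 4.8 (acidified PBS). Leakage was read at ex 350/em 510 nm after 3 h against 10% Triton maximum, expressed as lipid/peptide ratio for 50% leakage.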

MCF‐10A = test: cells; type: cell-based, human; settings: 72 h
Excerpt: (§1) […], and MCF-10A cells were maintained in MEGM with supplements and growth factors bovine pituitary extract, hydrocortisone, human epidermal growth factor, insulin, and gentamicin/amphotericin-B.

HMLER = test: cells; type: cell-based, human; settings: 72 h
Excerpt: as §1

HMLER‐shEcad = test: cells; type: cell-based, human; settings: 72 h
Excerpt: as §1

HEK293T = test: cells; type: cell-based, human; settings: 72 h
U2OS = type: cell-based, human; settings: 72 h
[2] = Tryptophan fluorescent binding assay; settings: tryptophan fluorescence; 50 µM peptide, lipid titrated 0-5000 µM; phosphate buffered saline 1X, pH 7.4; values as lipid per peptide
Method in brief: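 Tryptophan fluorescence was used to follow binding of peptide, fixed at 50 µM, to large unilamellar vesicles of POPC:POPG (3:1 ratio) titrated into phosphate buffered saline (1X, pH 7.4). After 1 h incubation, spectra were taken on a BioTek Cytation 5 reader with excitation at 280 nm and emission at 300 to 450 nm (9 nm slits), averaging three scans.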

SMILES	Peptide Concentration-induced 50 % ANTS/DPX leakage at pH 4.8 (L/P), 3POPC/1POPG Vesicle [1] [L/P]	Peptide Concentration-induced 50 % ANTS/DPX leakage at pH 4.8 (L/P), POPC Vesicle [1] [L/P]	Peptide Concentration-induced 50 % ANTS/DPX leakage at pH 7.4 (L/P), 3POPC/1POPG Vesicle [1] [L/P]	Peptide Concentration-induced 50 % ANTS/DPX leakage at pH 7.4 (L/P), POPC Vesicle [1] [L/P]	IC50 (MCF‐10A) [µM]	IC50 (HMLER) [µM]	IC50 (HMLER‐shEcad) [µM]	IC50 (HEK293T) [µM]	IC50 (U2OS) [µM]	Lipid Concentration-induced 50% Peptide Binding (L/P), 3POPC/1POPG Vesicle [2] [L/P]	Lipid Concentration-induced 50% Peptide Binding (L/P), POPC Vesicle [2] [L/P]
CC(C)C[C@H](NC(=O)CN)C(=O)N[C@@H](CC(C)C)C(=O)N[C@@H](CCCCN)C(=O)N[C@@H](CC(C)C)C(=O)N[C@@H](CC(C)C)C(=O)N[C@@H](Cc1c[nH]cn1)C(=O)N[C@@H](CC(C)C)C(=O)N[C@@H](CC(C)C)C(=O)N[C@@H](CC(C)C)C(=O)N[C@@H](CCCCN)C(=O)N[C@@H](C)C(=O)N[C@@H](C)C(=O)NCC(=O)N[C@@H](Cc1c[nH]c2ccccc12)C(N)=O [KHK] (H-GLLKLLHLLLKAAGW-NH2)	53	140	193	1153	1.81 ± 0.05	2.59 ± 0.92	1.4 ± 0.14	3.55 ± 0.78	12.9 ± 1.24	0.38	0.17
CC(C)C[C@H](NC(=O)CN)C(=O)N[C@@H](CC(C)C)C(=O)N[C@@H](CCCCN)C(=O)N[C@@H](CC(C)C)C(=O)N[C@@H](CC(C)C)C(=O)N[C@@H](CCC(=O)O)C(=O)N[C@@H](CC(C)C)C(=O)N[C@@H](CC(C)C)C(=O)N[C@@H](CC(C)C)C(=O)N[C@@H](Cc1c[nH]cn1)C(=O)N[C@@H](C)C(=O)N[C@@H](C)C(=O)NCC(=O)N[C@@H](Cc1c[nH]c2ccccc12)C(N)=O [KEH] (H-GLLKLLELLLHAAGW-NH2)	68	188	286	995	20	3.3 ± 0.42	2.35 ± 0.07	5.65 ± 0.07	49.2 ± 5.3	0.50	1.00
CC(C)C[C@H](NC(=O)CN)C(=O)N[C@@H](CC(C)C)C(=O)N[C@@H](CCCCN)C(=O)N[C@@H](CC(C)C)C(=O)N[C@@H](CC(C)C)C(=O)N[C@@H](CCCCN)C(=O)N[C@@H](CC(C)C)C(=O)N[C@@H](CC(C)C)C(=O)N[C@@H](CC(C)C)C(=O)N[C@@H](CCC(=O)O)C(=O)N[C@@H](C)C(=O)N[C@@H](C)C(=O)NCC(=O)N[C@@H](Cc1c[nH]c2ccccc12)C(N)=O [KKE] (H-GLLKLLKLLLEAAGW-NH2)	131	143	346	1133	2.9 ± 0.57	2.05 ± 0.64	1.7	4.4 ± 0.14	12.8 ± 1.2	0.44	0.48
CC(C)C[C@H](NC(=O)CN)C(=O)N[C@@H](CC(C)C)C(=O)N[C@@H](CCCCN)C(=O)N[C@@H](CC(C)C)C(=O)N[C@@H](CC(C)C)C(=O)N[C@@H](CCCCN)C(=O)N[C@@H](CC(C)C)C(=O)N[C@@H](CC(C)C)C(=O)N[C@@H](CC(C)C)C(=O)N[C@@H](Cc1c[nH]cn1)C(=O)N[C@@H](C)C(=O)N[C@@H](C)C(=O)NCC(=O)N[C@@H](Cc1c[nH]c2ccccc12)C(N)=O [KKH] (H-GLLKLLKLLLHAAGW-NH2)	49	164	227	2119	1.75 ± 0.35	2.4 ± 0.85	2.2 ± 0.42	4 ± 0.28	13.3 ± 0.99	0.48	0.83
CC(C)C[C@H](NC(=O)CN)C(=O)N[C@@H](CC(C)C)C(=O)N[C@@H](CCC(=O)O)C(=O)N[C@@H](CC(C)C)C(=O)N[C@@H](CC(C)C)C(=O)N[C@@H](CCCCN)C(=O)N[C@@H](CC(C)C)C(=O)N[C@@H](CC(C)C)C(=O)N[C@@H](CC(C)C)C(=O)N[C@@H](Cc1c[nH]cn1)C(=O)N[C@@H](C)C(=O)N[C@@H](C)C(=O)NCC(=O)N[C@@H](Cc1c[nH]c2ccccc12)C(N)=O [EKH] (H-GLLELLKLLLHAAGW-NH2)	88	55	365	608	7.9 ± 0.42	2.75 ± 0.07	2.18 ± 0.31	6.65 ± 1.34	23.8 ± 0.81	0.19	0.75
CC(C)C[C@H](NC(=O)CN)C(=O)N[C@@H](CC(C)C)C(=O)N[C@@H](CCCCN)C(=O)N[C@@H](CC(C)C)C(=O)N[C@@H](CC(C)C)C(=O)N[C@@H](Cc1c[nH]cn1)C(=O)N[C@@H](CC(C)C)C(=O)N[C@@H](CC(C)C)C(=O)N[C@@H](CC(C)C)C(=O)N[C@@H](Cc1c[nH]cn1)C(=O)N[C@@H](C)C(=O)N[C@@H](C)C(=O)NCC(=O)N[C@@H](Cc1c[nH]c2ccccc12)C(N)=O [KHH] (H-GLLKLLHLLLHAAGW-NH2)	48	227	329	1153	10.3 ± 0.49	5.2 ± 0.71	4.45 ± 0.49	7.75 ± 0.78	39.8 ± 5.3	0.94	3.50
CC(C)C[C@H](NC(=O)CN)C(=O)N[C@@H](CC(C)C)C(=O)N[C@@H](CCCCN)C(=O)N[C@@H](CC(C)C)C(=O)N[C@@H](CC(C)C)C(=O)N[C@@H](Cc1c[nH]cn1)C(=O)N[C@@H](CC(C)C)C(=O)N[C@@H](CC(C)C)C(=O)N[C@@H](CC(C)C)C(=O)N[C@@H](CCC(=O)O)C(=O)N[C@@H](C)C(=O)N[C@@H](C)C(=O)NCC(=O)N[C@@H](Cc1c[nH]c2ccccc12)C(N)=O [KHE] (H-GLLKLLHLLLEAAGW-NH2)	156	183	188	981	20.9 ± 5.87	3.7 ± 0.14	2.92 ± 0.17	26 ± 2.83	53 ± 2.83	0.71	0.88
